Several values for one entry are separate records, joined by “and”; a condition that tells them apart may be missing. Equal values may be shown once.
What was measured:
[1] = JN-170 plasma pharmacokinetics in C57Bl/6J mice, single oral dose; assay type: in vivo, mouse; set-up: JN-170 plasma level (Fig 2a): unit not given here
Description: Male homozygous BTBR-Pah<enu2>/J (Pah^enu2) aged 10–13 weeks were purchased from Jackson Laboratory (no. 002232). Immediately before dosing, each animal’s bladder was manually emptied and a plasma sample was drawn. Animals were dosed by oral gavage with vehicle (10% DMSO, 20% 2-hydroxypropyl-β-cyclodextrin [Sigma-Aldrich]) followed by a 1-week washout prior to dosing with JN-170 at doses ranging from 50 to 250 mg/kg. Following dosing with vehicle or JN-170, animals were individually placed in metabolic cages to collect urine samples. After collection of each urine sample, cages were rinsed with ultra-pure water to recover residual analytes. Blood samples were collected predose as well as 1, 3, 8, 12, and 24 hours after dosing with vehicle or JN-170 into tubes with EDTA as a […], and plasma was separated by centrifuging samples at 2,200g for 5 minutes at 4°C. Throughout the study, mice had access to food and water ad libitum. Plasma and urine samples were stored at –80°C until processing.Ten-week-old male WT C57Bl/6J animals (Si Bei Fu Laboratory Animal Technology Co. Ltd.) were dosed either with vehicle or 50–250 mg/kg JN-170 by oral gavage and blood and urine samples were collected as described. All animals had unrestricted access to food and water during the study; C57Bl/6J were kept on rodent maintenance diet from Beijing Keao Xieli, Pah^enu2 mice were kept on Teklad diet no. T.2018.
Plasma sample analyses were carried out by liquid chromatography tandem mass spectrometry (LC-MS/MS). Plasma samples were mixed 1:1 with carbamazepine or ^13C6-Phe as internal standards for JN-170 and Phe, respectively. Plasma proteins were precipitated by adding 4 volumes of acetonitrile (ACN) and 0.1% formic acid (FA) followed by centrifugation for 5 minutes at 2,100g. Supernatants were diluted 1:1 in ACN and 0.1% FA. For JN-170, a Waters HSS T3 reversed phase column was used for separation using a binary gradient of 0.1% FA in water (mobile phase A) to 0.1% in ACN (mobile phase B). At a flow rate of 0.8 mL/min, the mobile phase gradient increased from an initial 25% phase B to 95% phase B over 30 seconds. After, 1.5 minutes, the gradient was returned to 25% mobile phase B. For detection of Phe, an Acquity UPLC ethylene bridged hybrid (BEH) amide column was used, with a binary gradient of 10 mM ammonium acetate in 95:5:1 H2O:ACN:FA (mobile phase A) to 10 mM ammonium acetate in 95:5:1 ACN:H2O:FA (mobile phase B). At a flow rate of 0.5 mL/min, the mobile phase gradient changed from an initial 100% phase B to 50% phase B over 2.1 minutes. It was returned to 100% phase B after 4 minutes. Analytes were detected using a Sciex API-5500 in multiple reaction monitoring mode using an electrospray ionization source in the positive ion mode with the following ion transitions: m/z 435.2/84.1 (JN-170), 237.1/194.1 (carbamazepine), 166.1/120.1 (Phe), 172.2/126.2 for (^13C6-Phe). Analyte concentrations were calculated with a 1/×^2 linear regression over a concentration range of 1 or 2 to 5,000 ng/mL for JN-170 and 0.05–100 ng/mL for Phe.

[2] = tested on: healthy volunteers; test: Phase 1 safety and tolerability, multiple ascending dose (MAD) cohorts; settings: for Any CTCAE Grade ≥ 3 / Any TEAE / Death / SAE / TEAE Anxiety / TEAE Contusion / TEAE Dehydration / TEAE Dizziness / TEAE Drug withdrawal headache / TEAE Dysmenorrhea / TEAE Flushing / TEAE Headache / TEAE Musculoskeletal pain / TEAE Myalgia / TEAE Nausea / TEAE Oropharyngeal pain / TEAE Rash / TEAE Skin injury / TEAE Somnolence / TEAE Swelling of eyelid / TEAE Thirst / TEAE Vascular access site pain / TEAEs leading to IP discontinuation: n = 6
Description: Eligible participants included males and females 18 to 55 years of age, medically healthy with no clinically notable medical history, a BMI of 18–40 kg/m^2 and total body weight > 50 kg (110 lbs), and who have been nonsmokers for at least 2 weeks prior to and throughout dosing.
In both SAD and MAD studies, safety and tolerability were assessed by AE monitoring, clinical laboratory tests (blood chemistries, hematology, coagulation, serology, and urinalysis), vital signs, 12-lead electrocardiograms, and physical examinations. Safety assessment and corresponding samples were collected on day-1 prior to dosing and days 1, 2, 3, and 8 for the SAD study or throughout the 14 days of dosing and day 21 for the MAD study.

N#Cc1ccc(-c2noc([C@]3(C(F)(F)F)CCN(C(=O)NCCC4(N)CC4)C3)n2)cc1 [JN-170]
JN-170 plasma level (Fig 2a) ([1]; 50 mg/kg oral, 1 h, individual C57Bl/6 mice): 4800 and 3580 and 3220 and 2280 and 3950 and 3920 | JN-170 plasma level (Fig 2a) ([1]; 50 mg/kg oral, 3 h, individual C57Bl/6 mice): 1290 and 798 and 1160 and 1370 and 1130 and 1480 | JN-170 plasma level (Fig 2a) ([1]; 50 mg/kg oral, 8 h, individual C57Bl/6 mice): 54.1 | JN-170 plasma level (Fig 2a) ([1]; 100 mg/kg oral, 1 h, individual C57Bl/6 mice): 5300 and 7590 and 9540 and 8120 and 9150 and 8490 | JN-170 plasma level (Fig 2a) ([1]; 100 mg/kg oral, 3 h, individual C57Bl/6 mice): 3330 and 3500 and 3620 and 5290 and 4430 and 4000 | JN-170 plasma level (Fig 2a) ([1]; 100 mg/kg oral, 8 h, individual C57Bl/6 mice): 1010 and 870 and 627 | JN-170 plasma level (Fig 2a) ([1]; 200 mg/kg oral, 1 h, individual C57Bl/6 mice): 12900 and 18300 and 14800 and 17900 and 16400 and 14100 | JN-170 plasma level (Fig 2a) ([1]; 200 mg/kg oral, 3 h, individual C57Bl/6 mice): 9760 and 9530 and 8870 and 8820 and 12800 and 12000 | JN-170 plasma level (Fig 2a) ([1]; 200 mg/kg oral, 8 h, individual C57Bl/6 mice): 2260 and 1430 and 1410 and 2700 and 2480 and 4110 | JN-170 plasma level (Fig 2a) ([1]; 250 mg/kg oral, 1 h, individual C57Bl/6 mice): 18600 and 13000 and 21300 and 27800 and 20500 and 19600 | JN-170 plasma level (Fig 2a) ([1]; 250 mg/kg oral, 3 h, individual C57Bl/6 mice): 13400 and 8320 and 12600 and 16100 and 11000 and 13600 | concentration at 8 h ([1]; male, C57Bl/6J, mouse, plasma, oral, 250 mg/kg, 250 mg/kg oral, 8 h, individual C57Bl/6 mice, read-out: JN-170 plasma level (Fig 2a)): 3650 ng/mL | concentration at 12 h ([1]; male, C57Bl/6J, mouse, plasma, oral, 250 mg/kg, 250 mg/kg oral, 12 h, individual C57Bl/6 mice, read-out: JN-170 plasma level (Fig 2a)): 1760 ng/mL | bioavailability ([1]; male, C57Bl/6J, mouse, plasma, po): ~5%

NC(=O)N1CCC[C@@H](N(C(=O)NCc2ccc(OC(F)(F)F)cc2F)C2CC2)C1 [JNT-517]
Any CTCAE Grade ≥ 3 ([2]; MAD 25 mg BID): 0 Number (%) | Any TEAE ([2]; MAD 25 mg BID): 5 (83.3) Number (%) | Death ([2]; MAD 25 mg BID): 0 Number (%) | SAE ([2]; MAD 25 mg BID): 0 Number (%) | TEAE Anxiety ([2]; MAD 25 mg BID): 0 Number (%) | TEAE Contusion ([2]; MAD 25 mg BID): 0 Number (%) | TEAE Dehydration ([2]; MAD 25 mg BID): 0 Number (%) | TEAE Dizziness ([2]; MAD 25 mg BID): 0 Number (%) | TEAE Drug withdrawal headache ([2]; MAD 25 mg BID): 1 (16.7) Number (%) | TEAE Dysmenorrhea ([2]; MAD 25 mg BID): 0 Number (%) | TEAE Flushing ([2]; MAD 25 mg BID): 0 Number (%) | TEAE Headache ([2]; MAD 25 mg BID): 3 (50) Number (%) | TEAE Musculoskeletal pain ([2]; MAD 25 mg BID): 1 (16.7) Number (%) | TEAE Myalgia ([2]; MAD 25 mg BID): 0 Number (%) | TEAE Nausea ([2]; MAD 25 mg BID): 0 Number (%) | TEAE Oropharyngeal pain ([2]; MAD 25 mg BID): 1 (16.7) Number (%) | TEAE Rash ([2]; MAD 25 mg BID): 0 Number (%) | TEAE Skin injury ([2]; MAD 25 mg BID): 1 (16.7) Number (%) | TEAE Somnolence ([2]; MAD 25 mg BID): 1 (16.7) Number (%) | TEAE Swelling of eyelid ([2]; MAD 25 mg BID): 1 (16.7) Number (%) | TEAE Thirst ([2]; MAD 25 mg BID): 1 (16.7) Number (%) | TEAE Vascular access site pain ([2]; MAD 25 mg BID): 0 Number (%) | TEAEs leading to IP discontinuation ([2]; MAD 25 mg BID): 1 (16.7) Number (%) | Any CTCAE Grade ≥ 3 ([2]; MAD 75 mg BID): 0 Number (%) | Any TEAE ([2]; MAD 75 mg BID): 2 (33.3) Number (%) | Death ([2]; MAD 75 mg BID): 0 Number (%) | SAE ([2]; MAD 75 mg BID): 0 Number (%) | TEAE Anxiety ([2]; MAD 75 mg BID): 1 (16.7) Number (%) | TEAE Contusion ([2]; MAD 75 mg BID): 0 Number (%) | TEAE Dehydration ([2]; MAD 75 mg BID): 0 Number (%) | TEAE Dizziness ([2]; MAD 75 mg BID): 1 (16.7) Number (%) | TEAE Drug withdrawal headache ([2]; MAD 75 mg BID): 0 Number (%) | TEAE Dysmenorrhea ([2]; MAD 75 mg BID): 1 (16.7) Number (%) | TEAE Flushing ([2]; MAD 75 mg BID): 1 (16.7) Number (%) | TEAE Headache ([2]; MAD 75 mg BID): 1 (16.7) Number (%) | TEAE Musculoskeletal pain ([2]; MAD 75 mg BID): 0 Number (%) | TEAE Myalgia ([2]; MAD 75 mg BID): 0 Number (%) | TEAE Nausea ([2]; MAD 75 mg BID): 1 (16.7) Number (%) | TEAE Oropharyngeal pain ([2]; MAD 75 mg BID): 0 Number (%) | TEAE Rash ([2]; MAD 75 mg BID): 1 (16.7) Number (%) | TEAE Skin injury ([2]; MAD 75 mg BID): 0 Number (%) | TEAE Somnolence ([2]; MAD 75 mg BID): 0 Number (%) | TEAE Swelling of eyelid ([2]; MAD 75 mg BID): 0 Number (%) | TEAE Thirst ([2]; MAD 75 mg BID): 0 Number (%) | TEAE Vascular access site pain ([2]; MAD 75 mg BID): 1 (16.7) Number (%) | TEAEs leading to IP discontinuation ([2]; MAD 75 mg BID): 0 Number (%) | Any CTCAE Grade ≥ 3 ([2]; MAD 150 mg QD): 0 Number (%) | Any TEAE ([2]; MAD 150 mg QD): 4 (66.7) Number (%) | Death ([2]; MAD 150 mg QD): 0 Number (%) | SAE ([2]; MAD 150 mg QD): 0 Number (%) | TEAE Anxiety ([2]; MAD 150 mg QD): 0 Number (%) | TEAE Contusion ([2]; MAD 150 mg QD): 1 (16.7) Number (%) | TEAE Dehydration ([2]; MAD 150 mg QD): 1 (16.7) Number (%) | TEAE Dizziness ([2]; MAD 150 mg QD): 0 Number (%) | TEAE Drug withdrawal headache ([2]; MAD 150 mg QD): 0 Number (%) | TEAE Dysmenorrhea ([2]; MAD 150 mg QD): 0 Number (%) | TEAE Flushing ([2]; MAD 150 mg QD): 0 Number (%) | TEAE Headache ([2]; MAD 150 mg QD): 2 (33.3) Number (%) | TEAE Musculoskeletal pain ([2]; MAD 150 mg QD): 0 Number (%) | TEAE Myalgia ([2]; MAD 150 mg QD): 1 (16.7) Number (%) | TEAE Nausea ([2]; MAD 150 mg QD): 0 Number (%) | TEAE Oropharyngeal pain ([2]; MAD 150 mg QD): 0 Number (%) | TEAE Rash ([2]; MAD 150 mg QD): 0 Number (%) | TEAE Skin injury ([2]; MAD 150 mg QD): 0 Number (%) | TEAE Somnolence ([2]; MAD 150 mg QD): 0 Number (%) | TEAE Swelling of eyelid ([2]; MAD 150 mg QD): 0 Number (%) | TEAE Thirst ([2]; MAD 150 mg QD): 0 Number (%) | TEAE Vascular access site pain ([2]; MAD 150 mg QD): 0 Number (%) | TEAEs leading to IP discontinuation ([2]; MAD 150 mg QD): 0 Number (%) | incidence of AE ([2]; MAD cohorts, all JNT-517 doses (11 of 18)): 61.1%
